# Source: patent US9918968B2, “Rapamycin analogs targeting proteasome function in the treatment of cancer” (THE BOARD OF REGENTS OF THE UNIVERSITY OF TEXAS SYSTEM, priority 2013, dated 2018)
# Columns and labels:
# [1] = target: T1, human 20S proteasome, ChT-L peptidase; assay: ChT-L peptidase activity of purified human 20S proteasome (Suc-LLVY-MCA); type: biochemical; conditions: for IC50: latent human 20S proteasome
# T1 construct: purchased Enzo LifeSciences
# Protocol: Human purified proteasome complexes were purchased from Enzo LifeSciences or Boston Biochemicals (19S complex). BODIPY-casein (Invitrogen/Molecular Probes) was used as a model protein substrate, with increasing fluorescence of BODIPY labeled peptide products of degradation monitored for up to 8 hours at 37° C. The peptidase activity of the enzyme was measured as arbitrary intensity units of the released fluorescent group 7-amino-4-methylcoumarin (AMC) from peptide substrates, as described. […] Proteasome substrates, rapamycin, its derivatives, and competing peptides were stocked in DMSO and diluted 100-fold in the reaction mixtures. The Rpt5 and PA200 C-terminal peptides were synthesized in the Departmental Peptide Synthesis Core using the standard SPPS chemistry. To activate the latent 20S proteasome, 0.005% (final concentration) of sodium dodecyl sulfate (SDS) was used. […] The fluorescence of products was monitored every 2 minutes with a Fluoroskan Ascent plate reader. Reaction rates were calculated from smoothed linear segment of kinetic curves using OriginPro 8.6 (OriginLabs, Northampton, Mass.). For the determination of an inhibition type, at least six distinct substrate concentrations and two inhibitor concentrations were used. The kinetic parameters of inhibition were analyzed in terms of the Michaelis-Menten formalism using the enzyme kinetic module of SigmaPlot v.12 (Systat Software, Inc, San Jose, Calif.) to perform the respective calculations. […]
# The in vitro assay for testing the ChT-L peptidase activity of the purified human 20S proteasome was performed as described above.
# [2] = target: T2, human 20S proteasome, PGPH peptidase; assay: PGPH peptidase activity of purified human 20S proteasome (CbzLLE-MCA); type: biochemical; conditions: for IC50: latent human 20S proteasome
# T2 construct: purchased Enzo LifeSciences
# Protocol: (§1) Human purified proteasome complexes were purchased from Enzo LifeSciences or Boston Biochemicals (19S complex). BODIPY-casein (Invitrogen/Molecular Probes) was used as a model protein substrate, with increasing fluorescence of BODIPY labeled peptide products of degradation monitored for up to 8 hours at 37° C. The peptidase activity of the enzyme was measured as arbitrary intensity units of the released fluorescent group 7-amino-4-methylcoumarin (AMC) from peptide substrates, as described. The common substrates specific for the three kinds of active sites: succinyl-LeuLeuValTyr-7-amido-4-methylcoumarin (Suc-LLVY-MCA; for the ChT-L activity; Bachem), butoxycarbonyl-LeuArgArg-MCA (BocLRR-MCA; for T-L; Bachem) and carbobenzoxy-LeuLeuGlu-MCA (CbzLLE-MCA; for PGPH; Enzo Life Sciences International, Inc.) were used at 100 μM final concentrations, unless stated otherwise (Gaczynska and Osmulski, 2005). Proteasome substrates, rapamycin, its derivatives, and competing peptides were stocked in DMSO and diluted 100-fold in the reaction mixtures. The Rpt5 and PA200 C-terminal peptides were synthesized in the Departmental Peptide Synthesis Core using the standard SPPS chemistry. To activate the latent 20S proteasome, 0.005% (final concentration) of sodium dodecyl sulfate (SDS) was used. The reactions were carried out in 96 well plates, with 2.3 nM proteasome and other components as indicated dissolved in 50 mM Tris-HCl buffer (pH 8.0) and incubated at 37° C. for up to 1 hour. The fluorescence of products was monitored every 2 minutes with a Fluoroskan Ascent plate reader. Reaction rates were calculated from smoothed linear segment of kinetic curves using OriginPro 8.6 (OriginLabs, Northampton, Mass.). For the determination of an inhibition type, at least six distinct substrate concentrations and two inhibitor concentrations were used. The kinetic parameters of inhibition were analyzed in terms of the Michaelis-Menten formalism using the enzyme kinetic module of SigmaPlot v.12 (Systat Software, Inc, San Jose, Calif.) to perform the respective calculations.
# (§2) IC50 values (a drug concentration causing 50% inhibition of the indicated enzymatic activity) were calculated for ChT-L and PGPH peptidases. Kd (dissociation constant) and Bmax (maximal activation effect achieved; in % above the control activity) values were calculated for the T-L peptidase. Mean±SD from n=2 or 3 experiments, or data from representative experiments set in duplicates or triplicates, are presented in the table. All three peptidase activities changed by no more than ±20%, without a concentration-dependent trend, upon treatment with up to 10 μM of rapamycin unrelated mTOR inhibitors PI-103 or NVP-BEZ235, in two independent experiments.
# [3] = target: T3, human 20S proteasome, T-L peptidase; assay: T-L peptidase activity of purified human 20S proteasome (BocLRR-MCA); type: biochemical; conditions: for Kd: activation of T-L peptidase; for Bmax [%]: T-L: maximal activation effect, % above the control activity
# T3 construct: purchased Enzo LifeSciences
# Protocol: as §1, §2
# [4] = test system: T4, 20S proteasome α face; assay: AFM imaging of open/closed conformers of 20S proteasome α face; parameters: species or system human; conditions: 10 μM compound
# T4 construct: purchased Enzo LifeSciences
# Protocol: AFM imaging of the 20S proteasomes were performed as previously described, in tapping (oscillating) mode in liquid (Osmulski et al., 2009 and Gaczynska and Osmulski, 2011). In short, 3 μL of proteasome preparations diluted to nanomolar concentration were deposited on a freshly cleaved muscovite mica surface. After 2 min incubation allowing electrostatic attachment of the protein particles to mica the droplet was overlaid with 30 microL of 50 mM Tris-HCl buffer (pH 7.0) and mounted in the wet chamber of a MultiMode NanoScope Ma (Bruker Corp.). Oxide-sharpened silicon nitride tips on cantilevers with a nominal spring constant 0.32 N/m (Bruker Corp.) were used to image 1 μm^2 fields in the height mode, with a scan rate of 3.05 Hz. The excitation frequency was manually tuned to 9-10 kHz, with a drive voltage of 200-500 mV and a relatively high set point (1.6 V to 1.9 V) to assure tapping with low, non-destructive force. […] As the inventors established previously, such resolution was sufficient to detect distinct conformations of the α face, covered by six scan lines. Multiple fields were scanned for each sample to collect images of hundreds of particles. Selected fields were repeatedly scanned to monitor changes in topography of the same particles for prolonged time. Inhibitors and the SucLLVY-MCA substrate were diluted in 10 μL of the imaging buffer and directly injected into the chamber. Raw images are presented, with a standard plain-fit and flattening (NanoScope software v.5.12) used as the only processing tools. For display purposes the brightness and contrast of the images was adjusted with the Nanoscope software or with Adobe Photoshop (Adobe Systems Inc.), and outlier scan lines were occasionally manually removed (Nanoscope software). Top view (“standing”, rounded) proteasomes were distinguished from the minor population of side-view (“lying”, rectangular) particles as described, by comparison of their length—to width ratios (Osmulski et al., 2009). The dimensions of particles were approximated and a shape of the α face in top-view proteasomes was judged with the help of a section tool in the Nanoscope v.5.12 or SPIP v.6.02 software (Image Metrology).
# For this purpose, the inventors used the noninvasive tapping mode atomic force microscopy (AFM) in liquid, the imaging technique suitable for analysis of surface topography of macromolecules in their native state with a nanometer-scale practical resolution. The inventors established before that AFM imaging is a useful tool for studying structural dynamics of the 20S α face (Osmulski et al., 2009, Gaczynska et al., 2003; Gaczynska et al., 2011). They acquired and analyzed images of hundreds of single native, fully active 20S molecules. The majority of particles were in top-view (“standing”) position conveniently allowing for imaging of their α faces. […] Following previous extensive studies, the inventors refer to the two forms as “closed-gate” and “open-gate” proteasomes, respectively (Osmulski et al., 2009). As described before, the inventors used the shape of sections carried out in four directions through the top portion of the surface topography of the α ring to distinguish between the two forms. In short, the particle was classified as closed if all four sections were cone-shaped. In contrast, the particle was classified as open if all sections presented a dip surrounded by a rim (FIG. 5A) (Osmulski, et al., 2009). The same particles imaged in consecutive scans were able to assume either closed or open conformations, however the cone-shaped particles were always more abundant than crater-shaped, and accounted for about three-quarters of the imaged molecules (FIG. 5B). Addition of rapamycin to the imaged particles remarkably changed the partition of forms. […]
# [5] = test system: T5, 20S core with 19S, 11S, tRpt5 or tPA200; assay: Activation of 20S core ChT-L activity by α face ligands (19S, 11S, tRpt5, tPA200); type: biochemical, human
# T5 construct: purchased Enzo LifeSciences (20S, 11S); Boston Biochemicals (19S complex)
# Protocol: as §1
# De novo assembly of 19S from subunits is a complex process assisted by chaperones. In vitro, and likely also in cells, the 26S can also be reconstructed from 20S and the already-assembled 19S particle in the presence of ATP (Smith et al., 2005). Enhancement of the peptidase activities of the core proteasome is an established test for efficiency of the in vitro reconstruction. […] In contrast, a pretreatment of 20S with 5 μM rapamycin before adding ATP and 19S totally abrogated the activation, leaving the proteasome almost 40% inhibited instead (FIG. 6).
Compound,IC50 [1] [µM],IC50 [2] [µM],Kd [3] [µM],Bmax [%]: T-L [3] [%],other results
CO[C@H]1C[C@@H]2CC[C@@H](C)[C@@](O)(O2)C(=O)C(=O)N2CCCC[C@H]2C(=O)O[C@H]([C@H](C)C[C@@H]2CC[C@@H](OP(C)(C)=O)[C@H](OC)C2)CC(=O)[C@H](C)/C=C(\C)[C@@H](O)[C@@H](OC)C(=O)[C@H](C)C[C@H](C)/C=C/C=C/C=C/1C [ridaforolimus],2.9 ± 0.5,0.43 ± 0.11,0.11,114,
CO[C@H]1C[C@@H]2CC[C@@H](C)[C@@](O)(O2)C(=O)C(=O)N2CCCC[C@H]2C(=O)O[C@H]([C@H](C)C[C@@H]2CC[C@@H](OC(=O)C(C)(CO)CO)[C@H](OC)C2)CC(=O)[C@H](C)/C=C(\C)[C@@H](O)[C@@H](OC)C(=O)[C@H](C)C[C@H](C)/C=C/C=C/C=C/1C [temsirolimus],2.1 ± 0.2,0.36 ± 0.03,0.19,81,IC50 for ChT-L lower than rapamycin ([1]; relative to rapamycin): ~40%; IC50 for PGPH lower than rapamycin ([2]; relative to rapamycin): 20%
CC[C@@H]1/C=C(\C)C[C@H](C)C[C@H](OC)[C@H]2O[C@@](O)(C(=O)C(=O)N3CCCC[C@H]3C(=O)O[C@H](/C(C)=C/[C@@H]3CC[C@H](Cl)[C@H](OC)C3)[C@H](C)[C@@H](O)CC1=O)[C@H](C)C[C@@H]2OC [pimecrolimus],> 20,0.57 ± 0.12,1.82,483,remaining ChT-L activity ([1]; 5 μM pimecrolimus alone): 82%; IC50 for PGPH increase as compared with rapamycin ([2]; relative to rapamycin): 40%; closed conformers [4]: ~40%; open conformers [4]: about 60%
Oc1cccc(-c2nc(N3CCOCC3)c3oc4ncccc4c3n2)c1 [PI-103],,,,,closed conformers [4]: 74%±4%; closed conformers after substrate ([4]; then SucLLVY-MCA 100 μM): 29%±5%; effect on activation of 20S with 19S ([5]; 5 μM): no detectable effects
CO[C@H]1C[C@@H]2CC[C@@H](C)[C@@](O)(O2)C(=O)C(=O)N2CCCC[C@H]2C(=O)O[C@H]([C@H](C)C[C@@H]2CC[C@@H](OCCO)[C@H](OC)C2)CC(=O)[C@H](C)/C=C(\C)[C@@H](O)[C@@H](OC)C(=O)[C@H](C)C[C@H](C)/C=C/C=C/C=C/1C [everolimus],2.5 ± 0.7,0.48 ± 0.11,0.07,93,
CO[C@H]1C[C@@H]2CC[C@@H](C)[C@@](O)(O2)C(=O)C(=O)N2CCCC[C@H]2C(=O)O[C@H]([C@H](C)C[C@@H]2CC[C@@H](O)[C@H](OC)C2)CC(=O)[C@H](C)/C=C(\C)[C@@H](O)[C@@H](OC)C(=O)[C@H](C)C[C@H](C)/C=C/C=C/C=C/1C [rapamycin],1.9 ± 0.2,0.41 ± 0.03,0.14,83,"remaining ChT-L activity ([1]; 2 μM rapamycin alone): 70%; ChT-L peptidase activity ([1]; 2 μM, % of DMSO control, representative experiment): 52%; ChT-L peptidase activity after 10-fold dilution ([1]; after incubation with 2 μM, 10-fold dilution): 99%; Ki ([1]; mixed inhibition model): 490 nM; PGPH peptidase activity ([2]; 0.2 μM, % of control): 48%; PGPH peptidase activity after 10-fold dilution ([2]; after incubation with 0.2 μM, 10-fold dilution): 96%; Ki ([2]; noncompetitive inhibition): 250 nM; inhibition of ChT-L activity, 20S pretreated before ATP and 19S ([5]; 5 μM, 19S 1:1): ~40%; inhibition of proteasome in presence of tPA200 ([5]; 10 μM compound, 10 μM tPA200): 50%"
11S: 11S proteasome activator complex PA28/REG,,,,,increase of ChT-L activity by protein complex ([5]; 1:1 molar ratio with 20S): 8 fold
C=CC[C@@H]1/C=C(\C)C[C@H](C)C[C@H](OC)[C@H]2O[C@@](O)(C(=O)C(=O)N3CCCC[C@H]3C(=O)O[C@H](/C(C)=C/[C@@H]3CC[C@@H](O)[C@H](OC)C3)[C@H](C)[C@@H](O)CC1=O)[C@H](C)C[C@@H]2OC [FK-506],> 20,0.93 ± 0.04,1.14,257,"lowering of activation by tRpt5 ([5]; 10 μM derivative, 10 μM tRpt5): about 30%; inhibition of proteasome with or without tPA200 ([5]; 10 μM derivative, presence or absence of 10 μM tPA200): about 40%"
